This assay addresses HIV-1 protease (Human immunodeficiency virus type 1 group M subtype B, UniProt P04585). The assay is described as follows: HIV-1 protease inhibitory potency, assay protocol of Toth and Marshall. In kind it is biochemical. The note with it: compared with 13-membered inhibitors 5i and 5j.

In the case of `COc1ccc2c(c1)COC/C=C\CCCCCN(C[C@@H](O)[C@H](Cc1ccccc1)NC(=O)O[C@H]1CO[C@H]3OCC[C@H]31)S2(=O)=O` [5k], the “fold reduction of enzyme inhibitory activity over inhibitors 5i and 5j” value is recorded as “greater than 20 fold”.

As for `COc1ccc2c(c1)COC/C=C/CCCCCN(C[C@@H](O)[C@H](Cc1ccccc1)NC(=O)O[C@H]1CO[C@H]3OCC[C@H]31)S2(=O)=O` [5l], the “fold reduction of enzyme inhibitory activity over inhibitors 5i and 5j” value is listed as “greater than 20 fold”.

The values above are taken from PMC5647257 (Bioorganic & medicinal chemistry letters, 2017).
